These results are taken from paper PMC7355964, “Enhancement in Oral Absorption of Ceftriaxone by Highly Functionalized Magnetic Iron Oxide Nanoparticles” (Pharmaceutics, 2020).

Entries after “also recorded” stand apart in the source; their conditions may differ.

Data set [1] is described as follows: In vivo oral pharmacokinetics studies. On the set-up: species or system Rabbits (Oryctolaguscuniculus). Conditions: rabbit, oral CFT aqueous solution. On the procedure: The availability of CFT and internal standard cephalexin (CEP) in plasma was determined through reverse phase HPLC protocol developed and validated in our laboratories. The protein precipitation method was taken into account for extracting drug from plasma. Plasma (200 µL) containing both drugs was blended and vortexed with ACN (400 µL) for 2 min and the precipitate was separated by centrifugation at 15,483 G for 10 min. The acquired supernatant was concentrated in vacuum and reconstituted in buffer (TBAH, 100 µL; pH 7.0). A volume of 25 µL was injected into the HPLC system Shimadzu, LC20A (Shimadzu, Kyoto, Japan) equipped with a purospher C18 (5 µm, 250 × 4.6 mm) column. The mobile phase was comprised of ACN and TBAH buffer (0.005 M, pH 7.0) in a ratio of 25:75. The flow rate was adjusted to 1 mL/min, and the wavelength selected was 220 nm.
Animal studies were conducted under institutional guidelines by following the principals of institutional animal care. The studies were approved by the Ethics Committee of International Center for Chemical and Biological Sciences, University of Karachi (Project identification code ICCBS/CBSCR/IEC-014/2018; approved date 06-04-2018). All animals were healthy and purchased for Dow University of Health Sciences OJHA campus Karachi, Pakistan. Rabbits (Oryctolaguscuniculus) with 1.2 kg normal body weight were chosen for the assessment of oral in vivo pharmacokinetics studies. Rabbits were held under standard quarantine conditions with free access to food and water for 12 h. Before conducting the in vivo studies, rabbits were kept under fasting conditions but with free access to water. Rabbits were divided into three distinct categories (n = 4). The first category was given CFT-MIH-MNPs suspension at 25 mg/kg body weight portion. Rabbits of the second and third categories were provided with CFT in oral aqueous solution at 25 and 50 mg/kg body weight. Blood samples (1mL) were collected via marginal ear vein using an insulin plastic syringe at various intervals within 24 h. After centrifugation at 2688 G for 10 min, plasma was acquired and stored at –20 °C. Pharmacokinetics parameters were assessed by linear trapezoidal standard using a non-compartmental model from individual drug plasma concentrations with reference to a time curve for CFT after oral administration of nanoformulation and controls separately. The estimations of maximum drug plasma concentration (Cmax) and time to reach maximum plasma concentration (Tmax) were obtained from the drug plasma concentration curves. These parameters were utilized to ascertain the pharmacokinetics parameters area under the curve from zero to last quantifiable value (AUC0-24), mean residence time (MRT) and clearance (Cl).

On the set-up of data set [2]: method as in PMID 23143633. Conditions: ref [35]; cited from earlier work.

What is called Cmax is the maximum level reached in the sampled fluid or tissue. For orientation: MRT means the average time that molecules of a dose stay in the body. Broadly, the Tmax is the time at which the peak concentration occurs. `CO/N=C(\C(=O)N[C@@H]1C(=O)N2C(C(=O)O)=C(CSc3nc(=O)c(=O)[nH]n3C)CS[C@H]12)c1csc(N)n1` [CFT, Ceftriaxone]: in data set [1] (albino, plasma, 50 mg/kg), the maximum concentration (Cmax) came to 2000 ± 600 ng/mL, the mean residence time (MRT) came to 8.4 ± 0.1 h and the Tmax turned out to be 1.5 h. For the same compound, the AUC(0-t) in data set [1] (albino, plasma, 50 mg/kg, read-out: AUC0-24) was 16100 ± 3700 ng·h/mL. Also, in data set [1] (25 mg/kg), the “CFT detection in blood plasma (HPLC)” value is given as “no drug was detected; also recorded: no detection of CFT in the blood plasma”. Besides, in data set [1] (50 mg/kg), the Clearance came out at 3.91 ± 0.4 L/h and the Volume distribution turned out to be 33.0 ± 1.94 L. The same compound showed a Clearance in data set [1] (50 mg/kg, listed as CFT Solution) of 3.9 ± 0.4 L/h. Moreover, the “pH (early neutral pH)” value in data set [2] is listed as “about 6.7”.
